These results are taken from ChEMBL document CHEMBL5291721, “A preclinical secondary pharmacology resource illuminates target-adverse drug reaction associations of marketed drugs” (Nat Commun, 2023).

Test [1] has as its target Beta-2 adrenergic receptor (Homo sapiens, UniProt P07550). The test is classed as functional, cell-based.
The target in test [2] is Cannabinoid receptor 1 (Homo sapiens, UniProt P21554).
Test [3] has as its target T1, Alpha-1A adrenergic receptor (Homo sapiens, UniProt P35348).
T1 sequence (P35348 whole entry): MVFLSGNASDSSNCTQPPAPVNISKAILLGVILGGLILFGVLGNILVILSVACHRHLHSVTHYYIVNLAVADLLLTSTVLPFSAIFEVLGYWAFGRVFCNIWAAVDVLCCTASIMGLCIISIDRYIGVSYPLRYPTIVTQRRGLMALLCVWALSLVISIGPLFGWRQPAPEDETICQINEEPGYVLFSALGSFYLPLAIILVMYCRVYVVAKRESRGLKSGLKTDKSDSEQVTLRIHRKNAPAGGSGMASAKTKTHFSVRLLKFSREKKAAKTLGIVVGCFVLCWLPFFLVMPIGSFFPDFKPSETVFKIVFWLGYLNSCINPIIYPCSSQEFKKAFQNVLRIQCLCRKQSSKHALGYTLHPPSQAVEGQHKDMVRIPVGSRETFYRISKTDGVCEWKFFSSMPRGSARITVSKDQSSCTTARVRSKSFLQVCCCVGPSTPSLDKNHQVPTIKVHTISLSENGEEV

In test [4] the target is T2, Muscarinic acetylcholine receptor M2 (Homo sapiens, UniProt P08172).
T2 sequence (P08172 whole entry): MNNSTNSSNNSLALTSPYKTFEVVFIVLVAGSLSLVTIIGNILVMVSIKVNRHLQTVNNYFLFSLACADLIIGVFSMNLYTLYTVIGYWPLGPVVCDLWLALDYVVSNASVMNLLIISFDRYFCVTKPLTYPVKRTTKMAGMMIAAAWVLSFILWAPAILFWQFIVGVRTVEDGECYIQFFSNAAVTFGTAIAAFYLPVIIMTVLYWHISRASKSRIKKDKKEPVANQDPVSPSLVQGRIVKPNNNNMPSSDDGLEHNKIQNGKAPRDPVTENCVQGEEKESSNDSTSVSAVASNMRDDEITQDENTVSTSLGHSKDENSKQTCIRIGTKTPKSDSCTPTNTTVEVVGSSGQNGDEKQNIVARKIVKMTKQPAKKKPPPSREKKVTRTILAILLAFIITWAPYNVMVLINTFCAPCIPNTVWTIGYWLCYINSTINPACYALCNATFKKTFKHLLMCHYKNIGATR

The target of test [5] is Voltage-dependent N-type calcium channel subunit alpha-1B (Rattus norvegicus, UniProt Q02294). The test is classed as functional.
The target in test [6] is Neurotensin receptor type 1 (Homo sapiens, UniProt P30989).
For test [7], the target named is T3, Corticotropin-releasing factor receptor 2 (Homo sapiens, UniProt Q13324).
T3 sequence (Q13324 whole entry): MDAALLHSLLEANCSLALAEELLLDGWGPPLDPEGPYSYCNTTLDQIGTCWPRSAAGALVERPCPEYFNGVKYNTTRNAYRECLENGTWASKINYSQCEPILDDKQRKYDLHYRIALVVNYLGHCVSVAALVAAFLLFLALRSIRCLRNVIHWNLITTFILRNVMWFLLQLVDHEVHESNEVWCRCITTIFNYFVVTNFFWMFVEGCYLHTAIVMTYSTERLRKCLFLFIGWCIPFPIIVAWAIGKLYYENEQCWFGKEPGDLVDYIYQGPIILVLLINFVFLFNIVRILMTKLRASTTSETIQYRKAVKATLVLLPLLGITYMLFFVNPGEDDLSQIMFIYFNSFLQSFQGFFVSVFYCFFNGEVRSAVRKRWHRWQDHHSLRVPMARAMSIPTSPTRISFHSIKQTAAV

In test [8] the target is Beta-3 adrenergic receptor (Homo sapiens, UniProt P13945).
For test [9], the target named is Histamine H2 receptor (Homo sapiens, UniProt P25021).
Further: assay procedure not described here.

Chain of Neurotensin receptor type 1 (P30989 whole entry): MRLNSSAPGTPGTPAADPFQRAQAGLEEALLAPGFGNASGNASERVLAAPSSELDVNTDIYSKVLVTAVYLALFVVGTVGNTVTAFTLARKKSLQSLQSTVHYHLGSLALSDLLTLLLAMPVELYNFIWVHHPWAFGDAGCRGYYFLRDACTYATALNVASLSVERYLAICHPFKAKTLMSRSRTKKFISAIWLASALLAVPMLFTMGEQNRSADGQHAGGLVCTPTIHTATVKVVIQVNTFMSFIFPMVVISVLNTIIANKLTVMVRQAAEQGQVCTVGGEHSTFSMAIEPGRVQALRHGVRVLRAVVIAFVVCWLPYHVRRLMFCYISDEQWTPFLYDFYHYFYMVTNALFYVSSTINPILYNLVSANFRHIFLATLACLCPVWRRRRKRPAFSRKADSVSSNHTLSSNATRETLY
Chain of Beta-2 adrenergic receptor (P07550 whole entry): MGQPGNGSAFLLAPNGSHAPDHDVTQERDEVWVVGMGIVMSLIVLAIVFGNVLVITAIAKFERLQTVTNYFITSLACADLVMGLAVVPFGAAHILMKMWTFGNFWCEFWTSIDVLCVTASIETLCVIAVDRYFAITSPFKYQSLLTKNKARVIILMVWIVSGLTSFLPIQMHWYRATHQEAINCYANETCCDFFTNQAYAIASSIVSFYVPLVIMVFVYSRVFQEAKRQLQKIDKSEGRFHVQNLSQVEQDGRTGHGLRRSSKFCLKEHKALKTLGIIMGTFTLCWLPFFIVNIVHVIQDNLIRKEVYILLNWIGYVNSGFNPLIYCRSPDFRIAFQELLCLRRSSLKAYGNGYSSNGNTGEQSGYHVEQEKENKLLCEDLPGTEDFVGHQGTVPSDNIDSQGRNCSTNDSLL
Chain of Beta-3 adrenergic receptor (P13945 whole entry): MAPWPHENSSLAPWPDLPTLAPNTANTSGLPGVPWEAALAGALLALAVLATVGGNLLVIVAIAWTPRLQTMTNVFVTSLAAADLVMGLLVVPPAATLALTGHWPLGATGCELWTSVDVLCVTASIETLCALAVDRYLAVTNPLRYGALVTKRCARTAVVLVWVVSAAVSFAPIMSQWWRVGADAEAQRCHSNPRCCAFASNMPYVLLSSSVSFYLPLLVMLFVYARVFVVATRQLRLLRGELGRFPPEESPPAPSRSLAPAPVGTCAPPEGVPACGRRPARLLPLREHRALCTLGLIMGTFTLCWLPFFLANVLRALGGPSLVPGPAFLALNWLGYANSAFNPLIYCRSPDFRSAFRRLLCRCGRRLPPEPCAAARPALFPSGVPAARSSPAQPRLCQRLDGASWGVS
Chain of Cannabinoid receptor 1 (P21554 whole entry): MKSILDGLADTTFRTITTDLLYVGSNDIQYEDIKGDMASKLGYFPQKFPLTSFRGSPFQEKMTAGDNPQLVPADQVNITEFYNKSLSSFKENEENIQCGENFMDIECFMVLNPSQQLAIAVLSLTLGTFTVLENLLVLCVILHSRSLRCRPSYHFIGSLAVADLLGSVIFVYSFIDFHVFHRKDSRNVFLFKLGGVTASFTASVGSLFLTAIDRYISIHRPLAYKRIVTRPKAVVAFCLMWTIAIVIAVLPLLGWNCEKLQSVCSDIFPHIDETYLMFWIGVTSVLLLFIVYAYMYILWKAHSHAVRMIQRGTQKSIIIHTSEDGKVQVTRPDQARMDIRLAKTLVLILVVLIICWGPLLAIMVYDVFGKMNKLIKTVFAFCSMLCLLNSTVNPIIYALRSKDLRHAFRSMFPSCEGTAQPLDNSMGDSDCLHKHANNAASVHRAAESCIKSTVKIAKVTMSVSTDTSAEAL
Chain of Voltage-dependent N-type calcium channel subunit alpha-1B (Q02294 whole entry): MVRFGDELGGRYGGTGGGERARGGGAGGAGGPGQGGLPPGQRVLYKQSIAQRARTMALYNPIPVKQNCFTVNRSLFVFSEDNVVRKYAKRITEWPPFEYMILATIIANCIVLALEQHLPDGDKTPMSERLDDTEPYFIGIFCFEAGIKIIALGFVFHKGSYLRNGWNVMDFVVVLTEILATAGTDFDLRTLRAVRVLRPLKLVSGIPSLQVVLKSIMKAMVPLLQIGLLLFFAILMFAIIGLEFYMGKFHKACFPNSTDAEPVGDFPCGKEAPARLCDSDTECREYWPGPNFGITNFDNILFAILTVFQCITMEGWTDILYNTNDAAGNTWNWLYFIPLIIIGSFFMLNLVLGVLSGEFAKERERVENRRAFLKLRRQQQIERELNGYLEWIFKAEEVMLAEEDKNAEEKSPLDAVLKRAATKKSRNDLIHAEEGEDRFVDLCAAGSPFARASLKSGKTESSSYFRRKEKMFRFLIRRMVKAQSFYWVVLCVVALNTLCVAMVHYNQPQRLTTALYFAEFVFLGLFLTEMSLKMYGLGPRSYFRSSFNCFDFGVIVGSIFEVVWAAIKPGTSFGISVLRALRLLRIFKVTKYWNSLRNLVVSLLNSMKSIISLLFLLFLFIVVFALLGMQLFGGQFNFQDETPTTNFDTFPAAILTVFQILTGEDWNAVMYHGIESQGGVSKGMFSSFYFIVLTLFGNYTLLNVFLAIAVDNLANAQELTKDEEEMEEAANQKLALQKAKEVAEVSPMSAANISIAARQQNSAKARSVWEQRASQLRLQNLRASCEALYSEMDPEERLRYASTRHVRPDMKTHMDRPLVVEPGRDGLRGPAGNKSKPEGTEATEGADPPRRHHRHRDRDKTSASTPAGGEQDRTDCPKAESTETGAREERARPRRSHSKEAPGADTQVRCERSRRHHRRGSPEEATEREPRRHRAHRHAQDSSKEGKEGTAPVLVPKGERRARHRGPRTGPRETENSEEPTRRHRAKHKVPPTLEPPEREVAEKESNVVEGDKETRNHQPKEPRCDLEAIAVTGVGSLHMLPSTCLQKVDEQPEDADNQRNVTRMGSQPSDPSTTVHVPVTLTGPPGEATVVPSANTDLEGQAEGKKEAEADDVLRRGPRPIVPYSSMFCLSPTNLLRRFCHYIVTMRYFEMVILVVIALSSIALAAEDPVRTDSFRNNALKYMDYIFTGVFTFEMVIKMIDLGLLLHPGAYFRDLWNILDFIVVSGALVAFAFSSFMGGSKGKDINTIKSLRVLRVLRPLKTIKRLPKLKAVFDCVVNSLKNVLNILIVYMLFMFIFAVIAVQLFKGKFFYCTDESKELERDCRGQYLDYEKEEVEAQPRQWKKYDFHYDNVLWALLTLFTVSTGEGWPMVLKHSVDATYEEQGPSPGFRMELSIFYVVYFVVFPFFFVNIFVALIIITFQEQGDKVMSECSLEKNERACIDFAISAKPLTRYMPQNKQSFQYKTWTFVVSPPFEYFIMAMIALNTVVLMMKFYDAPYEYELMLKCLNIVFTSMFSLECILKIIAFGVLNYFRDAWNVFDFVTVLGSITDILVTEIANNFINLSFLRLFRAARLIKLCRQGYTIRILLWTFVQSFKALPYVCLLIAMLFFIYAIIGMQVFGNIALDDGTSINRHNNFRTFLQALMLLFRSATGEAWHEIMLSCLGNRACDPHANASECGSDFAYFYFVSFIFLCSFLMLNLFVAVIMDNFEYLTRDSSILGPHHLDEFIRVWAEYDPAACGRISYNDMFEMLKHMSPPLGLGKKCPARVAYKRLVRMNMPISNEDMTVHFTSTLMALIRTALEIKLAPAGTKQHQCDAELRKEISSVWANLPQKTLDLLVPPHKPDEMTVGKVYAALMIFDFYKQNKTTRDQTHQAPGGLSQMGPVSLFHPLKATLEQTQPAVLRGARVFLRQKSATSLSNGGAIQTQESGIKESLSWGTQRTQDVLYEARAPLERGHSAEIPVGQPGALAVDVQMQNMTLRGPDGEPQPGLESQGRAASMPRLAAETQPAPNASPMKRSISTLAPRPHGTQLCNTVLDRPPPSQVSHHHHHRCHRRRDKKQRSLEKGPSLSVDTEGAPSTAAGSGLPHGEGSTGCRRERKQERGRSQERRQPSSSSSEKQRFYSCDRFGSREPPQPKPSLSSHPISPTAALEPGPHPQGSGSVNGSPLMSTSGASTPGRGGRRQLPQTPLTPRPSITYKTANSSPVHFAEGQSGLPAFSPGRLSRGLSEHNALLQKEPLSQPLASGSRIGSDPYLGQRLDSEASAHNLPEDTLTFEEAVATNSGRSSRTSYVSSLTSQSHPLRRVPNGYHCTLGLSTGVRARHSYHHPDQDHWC
Chain of Histamine H2 receptor (P25021 whole entry): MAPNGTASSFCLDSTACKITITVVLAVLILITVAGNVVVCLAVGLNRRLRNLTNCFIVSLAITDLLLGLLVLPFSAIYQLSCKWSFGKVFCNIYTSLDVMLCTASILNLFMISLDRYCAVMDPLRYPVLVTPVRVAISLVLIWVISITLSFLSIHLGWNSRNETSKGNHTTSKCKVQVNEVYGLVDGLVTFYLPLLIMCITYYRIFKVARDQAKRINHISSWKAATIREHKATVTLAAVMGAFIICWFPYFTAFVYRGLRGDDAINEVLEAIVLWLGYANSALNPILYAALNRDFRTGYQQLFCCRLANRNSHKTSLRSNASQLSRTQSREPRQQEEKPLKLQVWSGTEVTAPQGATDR

What is called AC50 is the concentration at which the activity in the assay is half-maximal. In the case of `O=C(O)Cc1cn(-c2ccccc2)nc1-c1ccc(Cl)cc1` [LONAZOLAC], in test [1], the AC50 was greater than 30 µM.
Still for that read-out and setting: as for `CCCC(CCC)C(=O)O[C@H]1C[C@H]2CC[C@@H](C1)[N+]2(C)C` [ANISOTROPINE], the figure is greater than 30 µM.
Take `CCCCOc1cc(C(=O)NCCN(CC)CC)c2ccccc2n1` [DIBUCAINE]: the AC50 in [2] and in [3] was greater than 10 µM each time.
For the molecule `CCCCC(C)(O)C/C=C/[C@H]1[C@H](O)CC(=O)[C@@H]1CCCCCCC(=O)OC` (stereo partly specified) [MISOPROSTOL], in [1], the AC50 was greater than 30 µM.
`C#C[C@]1(O)CC[C@H]2[C@@H]3CCC4=CCCC[C@@H]4[C@H]3CC[C@@]21C` [LYNESTRENOL] came in with an AC50 in test [1] greater than 30 µM.
As for `CCC1(C2=CCCCCC2)C(=O)NC(=O)NC1=O` [HEPTABARBITAL], the AC50 in test [2] and in test [3] was greater than 10 µM each time.
Turning to `CN1CC(=O)N2[C@H](c3ccc4c(c3)OCO4)c3[nH]c4ccccc4c3C[C@@H]2C1=O`, the values for the AC50 in test [2], in test [3] and in test [1] were greater than 10 µM, greater than 10 µM and greater than 30 µM, respectively.
On to `COC(=O)C1=C(C)NC(C)=C(C(=O)OC(C)C)C1c1cccc2nonc12` (stereo unspecified) [ISRADIPINE], for which the figures for the AC50 in test [2] and in test [3] were greater than 10 µM and greater than 30 µM, respectively.
`CC/C=C\C/C=C\C/C=C\CCCCCCCC(=O)O` [LINOLENIC ACID] gave a concentration at half-maximal activity (AC50) in test [1] greater than 30 µM.
Molecule `Cc1c(Cl)cccc1Nc1ccccc1C(=O)O` [TOLFENAMIC ACID] registered an AC50 in test [1] greater than 30 µM.
As for `CCN1CCC[C@H]1CNC(=O)c1cc(S(N)(=O)=O)ccc1OC` [LEVOSULPIRIDE], the AC50 in test [2] was greater than 10 µM; in test [3] it was 16 µM; in test [1], greater than 30 µM.
In the case of `COc1ccccc1OCC(O)COC(N)=O` (stereo unspecified) [METHOCARBAMOL], the concentration at half-maximal activity (AC50) in test [2] and in test [3] was greater than 10 µM in each case.
With `CC(=O)OCC(=O)[C@@]12OC3(CCCC3)O[C@@H]1C[C@H]1[C@@H]3CCC4=CC(=O)C=C[C@]4(C)[C@@]3(F)[C@@H](O)C[C@@]12C` [AMCINONIDE], the half-maximal activity concentration (AC50) in test [2] was 4.25 µM; in [3], greater than 10 µM.
Take `COc1c(N2CCNC(C)C2)c(F)cc2c(=O)c(C(=O)O)cn(C3CC3)c12` (stereo unspecified) [GATIFLOXACIN]: the values for the AC50 in test [2] and in [3] were greater than 10 µM and greater than 30 µM, respectively.
On to `C#CCN[C@@H]1CCc2ccccc21` [RASAGILINE], for which the results for the AC50 in [2] and in [3] were greater than 30 µM and 20 µM, respectively.
As to `C#CCN(C)[C@H](C)Cc1ccccc1` [SELEGILINE], the values for the AC50 in [2] and in [3] were greater than 10 µM and 12.7 µM, respectively.
As for `CN1CCC2=C(C1)C(c1ccccc1)c1ccccc12` (stereo unspecified) [PHENINDAMINE], the AC50 in test [2] and in test [3] was greater than 10 µM each time.
In the case of `C#CC1(OC(N)=O)CCCCC1` [ETHINAMATE], the AC50 in [2] and in test [3] was greater than 10 µM in each case.
Consider `CN1C(=O)CC(=O)N(c2ccccc2)c2cc(Cl)ccc21` [CLOBAZAM], for which the AC50 in test [2] and in test [3] was greater than 10 µM throughout.
As for `C[C@]12CCC(=O)C=C1CC[C@@H]1[C@@H]2CC[C@@]2(C)[C@H]1CC[C@]2(C)O` [METHYLTESTOSTERONE], the AC50 in test [1] was greater than 30 µM.
Take `C=C1CC[C@@]2(O)[C@H]3Cc4ccc(O)c5c4[C@@]2(CCN3CC2CC2)[C@H]1O5`: the AC50 in test [1] was greater than 30 µM.
Take `CN[C@@H]1[C@H](O)[C@H](NC)[C@H]2O[C@@]3(O)C(=O)C[C@@H](C)O[C@H]3O[C@@H]2[C@H]1O` [SPECTINOMYCIN]: the AC50 in [2] and in test [3] was greater than 10 µM each time.
As for `CC1=CC(=O)c2ccccc2C1=O` [MENADIONE], the concentration at half-maximal activity (AC50) in test [2] is greater than 10 µM; in [3] it was greater than 30 µM.
Take `CCNC(C)Cc1cccc(C(F)(F)F)c1` (stereo unspecified) [FENFLURAMINE]: the AC50 is greater than 10 µM in test [2]; greater than 10 µM in test [4]; greater than 10 µM in test [5]; greater than 30 µM in test [6]; greater than 30 µM in [7]; greater than 30 µM in test [8].
On to `CCCCCOC(=O)Nc1nc(=O)n([C@@H]2O[C@H](C)[C@@H](O)[C@H]2O)cc1F` [CAPECITABINE], for which the AC50 in [1] was greater than 30 µM.
Regarding `CC(=O)O[C@@]12CO[C@@H]1C[C@H](O)[C@@]1(C)C(=O)[C@H](O)C3=C(C)[C@@H](OC(=O)[C@H](O)[C@@H](NC(=O)OC(C)(C)C)c4ccccc4)C[C@@](O)([C@@H](OC(=O)c4ccccc4)[C@H]21)C3(C)C` [DOCETAXEL ANHYDROUS], the concentration at half-maximal activity (AC50) in test [2] and in test [3] was greater than 30 µM throughout.
As to `CC(=O)NS(=O)(=O)c1ccc(N)cc1` [SULFACETAMIDE], the AC50 in [2] and in [3] was greater than 10 µM in each case.
In [1], `CCCOc1ccc(C(=O)OCCN(CC)CC)cc1N` [PROPARACAINE] yielded an AC50 greater than 30 µM.
Regarding `CN1CCN(C(=O)OC2c3nccnc3C(=O)N2c2ccc(Cl)cn2)CC1` (stereo unspecified) [ZOPICLONE], the AC50 was greater than 10 µM in test [3]; greater than 10 µM in test [5]; greater than 30 µM in test [6]; greater than 30 µM in [7]; greater than 30 µM in [8]; greater than 10 µM in test [9].
`Nc1ncnc2c1ncn2[C@@H]1O[C@H](COP(=O)(O)O)[C@@H](O)[C@H]1O` [ADENOSINE PHOSPHATE]: the AC50 in test [1] is 9.5 µM.
With `CN1C(=O)CC(c2ccccc2)C1=O` (stereo unspecified) [PHENSUXIMIDE], the AC50 in test [2] and in test [3] was greater than 10 µM each time.
Consider `CC(C)C(=O)OCC(=O)[C@@]12O[C@H](C3CCCCC3)O[C@@H]1C[C@H]1[C@@H]3CCC4=CC(=O)C=C[C@]4(C)[C@H]3[C@@H](O)C[C@@]12C` [CICLESONIDE], for which the AC50 in [2] was 12.1 µM; in [3] it was greater than 10 µM.
Take `CC(C)c1c(C(=O)Nc2ccccc2)c(-c2ccccc2)c(-c2ccc(F)cc2)n1CC[C@@H](O)C[C@@H](O)CC(=O)O` [ATORVASTATIN]: the AC50 in test [2] was greater than 10 µM; in test [3] it was greater than 10 µM; in test [5], greater than 10 µM; in test [1], greater than 30 µM; in test [6], greater than 30 µM; in test [7], greater than 30 µM. In addition, the values for the AC50 in [8] and in [9] were greater than 30 µM and greater than 10 µM, respectively.
For `CCN(CC)CCOC(=O)c1ccc(N)cc1` [PROCAINE], the AC50 in test [2] was greater than 10 µM; in [3], greater than 10 µM; in [5] it was greater than 10 µM; in test [1], greater than 30 µM.
Turning to `Nc1nc2ccc(OC(F)(F)F)cc2s1` [RILUZOLE], the AC50 in [1] is greater than 30 µM.
On the same count and under the same terms, for `Cc1cccc(C)c1NC(=O)C1CCCCN1C` (stereo unspecified) [MEPIVACAINE] the value was greater than 30 µM.
Take `CC(Cc1ccccc1)NCCC(c1ccccc1)c1ccccc1` (stereo unspecified) [PRENYLAMINE]: the AC50 in [2] is 7.95 µM; in test [3] it was 0.877 µM; in test [1], greater than 30 µM.
Consider `CN1CCCN=C1COC(=O)C(O)(c1ccccc1)C1CCCCC1` (stereo unspecified) [OXYPHENCYCLIMINE], for which the figures for the AC50 in [2], in test [3] and in test [4] were greater than 10 µM, greater than 10 µM and 0.0263 µM, respectively.
In [1], `C[C@H]1C[C@@H]2[C@H]([C@@H](O)C[C@@]3(C)[C@H]2CC[C@]3(O)C(=O)COC(=O)CCC(=O)O)[C@@]2(C)C=CC(=O)C=C12` [METHYLPREDNISOLONE HEMISUCCINATE] had an AC50 greater than 30 µM.
`CN1CC[C@]23CCCC[C@H]2[C@H]1Cc1ccc(O)cc13` [LEVORPHANOL] returned an AC50 in test [2] greater than 10 µM.
For `O=C(CCCCC(=O)Nc1c(I)cc(I)c(C(=O)O)c1I)Nc1c(I)cc(I)c(C(=O)O)c1I` [IODIPAMIDE], the AC50 in [2] was greater than 10 µM; in test [3] it was greater than 30 µM.
As to `CC(C)[N+](C)(CCC(C(N)=O)(c1ccccc1)c1ccccc1)C(C)C` [ISOPROPAMIDE], the results for the AC50 in test [2], in test [3] and in test [4] were greater than 10 µM, greater than 10 µM and 0.012 µM, respectively.
`C1COC(NC(C2CC2)C2CC2)=N1` [RILMENIDINE] came in with an AC50 in [3] of 4.39 µM.
